Converted amounts (≈) assume the structure as drawn. Where two headings read alike, the source gives them in different places.

A short description of data set [1]: Relative solubilities in water, 0.1% HCl and methanol. The format is physicochemical. Conditions: 25 °C, 25 deg. Here is the method: The solubility of 3′-[(2Z)-[1-(3,4-dimethylphenyl)-1,5-dihydro-3-methyl-5-oxo-4H-pyrazol-4-ylidene]hydrazino]-2′-hydroxy-[1,1′-biphenyl]-3-carboxylic acid as the free acid (Compound A) and as the bis-(monoethanolamine) salt (Compound B) was determined in three different systems: water, 0.1 HCl and methanol.

The nature of data set [2]: Solubility of the free acid in water (stated in description). Conditions: stated as approximate in the description. The class given is physicochemical.
Setting [3] is: organic solvent or mixture, solvent methanol, read-out: Solubility at 25 deg, methanol.
[4] abbreviates: simulated gastric fluid, solvent 0.1% HCl, read-out: Solubility at 25 deg, 0.1% HCl.
Where [5] appears, read: solvent water, read-out: Solubility at 25 deg, Water.

Broadly, the solubility is the concentration that dissolves in the medium under given conditions. Take `CC1=NN(c2ccc(C)c(C)c2)C(=O)/C1=N\Nc1cccc(-c2cccc(C(=O)O)c2)c1O.NCCO.NCCO` [Compound B, 3′-[(2Z)-[1-(3,4-dimethylphenyl)-1,5-dihydro-3-methyl-5-oxo-4H-pyrazol-4-ylidene]hydrazino]-2′-hydroxy-[1,1′-biphenyl]-3-carboxylic acid bis-(monoethanolamine)]: the solubility is 6400 µg/mL in data set [1] (setting [3]), below 1 µg/mL in data set [1] (setting [4]) and 14200 µg/mL in data set [1] (setting [5]).
Turning to `CC1=NN(c2ccc(C)c(C)c2)C(=O)/C1=N\Nc1cccc(-c2cccc(C(=O)O)c2)c1O` [Compound A, 3′-[(2Z)-[1-(3,4-dimethylphenyl)-1,5-dihydro-3-methyl-5-oxo-4H-pyrazol-4-ylidene]hydrazino]-2′-hydroxy-[1,1′-biphenyl]-3-carboxylic acid], the solubility was 1900 µg/mL (≈ 4290 µM) in data set [1] (setting [3]), below 1 µg/mL in data set [1] (setting [4]) and below 1 µg/mL in data set [1] (setting [5]). Further, the solubility in water result in data set [2] was “approximately 5 micrograms per milliliter”.

The values are drawn from US8846024B2, “3′-[(2Z)-[1-(3,4-dimethylphenyl)-1,5-dihydro-3-methyl-5-oxo-4H-pyrazol-4-ylidene]hydrazino]-2′-hydroxy-[1,1′-biphenyl]-3-carboxylic acid bis-(monoethanolamine)” (GlaxoSmithKline LLC, priority 2002, dated 2014).
